Tests used:
Format in all cases: cell-based
H. influenzae UC30063 = experiment: Antibacterial activity, MIC; conditions: strain UC30063
S. aureus UC9218 = experiment: Antibacterial activity, MIC; conditions: strain UC9218
E. coli UC6674 = experiment: Antibacterial activity, MIC; conditions: strain UC6674
E. faecalis UC9217 = experiment: Antibacterial activity, MIC; conditions: strain UC9217
M. catarrhalis UC30607 = experiment: Antibacterial activity, MIC; conditions: strain UC30607
S. pneumoniae UC9912 = experiment: Antibacterial activity, MIC; conditions: strain UC9912
[1] = system: E. faecalis, S. aureus, S. pneumoniae, H. influenzae, M. catarrhalis, E. coli; experiment: Antibacterial activity, overall statement on Table 1; conditions: summary in words of Table 1

| SMILES | MIC H. influenzae UC30063 (H. influenzae UC30063) | MIC S. aureus UC9218 (S. aureus UC9218) | MIC E. coli UC6674 (E. coli UC6674) | MIC E. faecalis UC9217 (E. faecalis UC9217) | MIC M. catarrhalis UC30607 (M. catarrhalis UC30607) | MIC S. pneumoniae UC9912 (S. pneumoniae UC9912) | antibacterial activity [1] |
| --- | --- | --- | --- | --- | --- | --- | --- |
| CC(=O)NC[C@H]1CN(c2ccc(N3CCN(c4cc5c(cc4F)c(=O)c(C(=O)O)cn5C4CC4)CC3)c(F)c2)C(=O)O1 [Example 1] | 8 :g/mL | 0.5 :g/mL | 16 :g/mL | 0.25 :g/mL | 1 :g/mL | 0.125 :g/mL |  |
| CC(=O)NC[C@H]1CN(c2ccc(N3CCN(c4c(F)cc5c(=O)c(C(=O)O)cn6c5c4OCC6C)CC3)c(F)c2)C(=O)O1 (stereo partly shown) [Example 2] | 4 :g/mL | 1 :g/mL | 16 :g/mL | 0.5 :g/mL | 2 :g/mL | 0.25 :g/mL |  |
| CC(=O)NC[C@H]1CN(c2ccc(-c3cc4c(cc3F)c(=O)c(C(=O)O)cn4C3CC3)c(F)c2)C(=O)O1 [Example 3, 7-(4{(5S)-5-[(Acetylamino)methyl]2-oxo-1,3-oxazolidin-3-yl}-2-fluorophenyl)-1-cyclopropyl-6-fluoro-4-oxo-1,4-dihydro-3-quinolinecarboxylic acid] | 0.5 :g/mL | 2 :g/mL | 4 :g/mL | 8 :g/mL | 4 :g/mL | 4 :g/mL | potent antibacterial activity |
